Results on one compound are retold here after article PMC11864979, “First-in-class ultralong-target-residence-time p38α inhibitors as a mitosis-targeted therapy for colorectal cancer” (Nature Cancer, 2025).

What all share (assay): selectivity profiling in a panel of 340 wild-type kinases (Reaction Biology Europe)
Common to all, as to format: binding

In assay [1] the target is T1, 340 wild-type kinases (Homo sapiens, UniProt O43781).
T1 construct: purchased Reaction Biology Europe
T1 sequence (O43781 1-588): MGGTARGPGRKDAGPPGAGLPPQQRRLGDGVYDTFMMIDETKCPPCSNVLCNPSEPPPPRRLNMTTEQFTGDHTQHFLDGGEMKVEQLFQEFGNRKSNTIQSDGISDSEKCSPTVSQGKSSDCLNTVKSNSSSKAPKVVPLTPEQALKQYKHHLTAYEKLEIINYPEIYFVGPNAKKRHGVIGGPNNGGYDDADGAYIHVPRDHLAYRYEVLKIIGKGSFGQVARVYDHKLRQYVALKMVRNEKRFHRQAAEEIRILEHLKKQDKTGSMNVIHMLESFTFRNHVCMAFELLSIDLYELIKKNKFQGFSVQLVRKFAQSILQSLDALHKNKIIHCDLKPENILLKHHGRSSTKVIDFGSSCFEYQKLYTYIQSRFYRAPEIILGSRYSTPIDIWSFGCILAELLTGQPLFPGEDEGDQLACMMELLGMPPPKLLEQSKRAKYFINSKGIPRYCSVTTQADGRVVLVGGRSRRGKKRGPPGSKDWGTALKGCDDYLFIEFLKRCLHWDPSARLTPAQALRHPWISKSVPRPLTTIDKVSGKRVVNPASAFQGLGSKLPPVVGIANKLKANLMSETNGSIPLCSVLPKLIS

The target of assay [2] is T2, 340 wild-type kinases (Homo sapiens, UniProt Q96GX5).
T2 construct: purchased Reaction Biology Europe
T2 sequence (Q96GX5 1-879): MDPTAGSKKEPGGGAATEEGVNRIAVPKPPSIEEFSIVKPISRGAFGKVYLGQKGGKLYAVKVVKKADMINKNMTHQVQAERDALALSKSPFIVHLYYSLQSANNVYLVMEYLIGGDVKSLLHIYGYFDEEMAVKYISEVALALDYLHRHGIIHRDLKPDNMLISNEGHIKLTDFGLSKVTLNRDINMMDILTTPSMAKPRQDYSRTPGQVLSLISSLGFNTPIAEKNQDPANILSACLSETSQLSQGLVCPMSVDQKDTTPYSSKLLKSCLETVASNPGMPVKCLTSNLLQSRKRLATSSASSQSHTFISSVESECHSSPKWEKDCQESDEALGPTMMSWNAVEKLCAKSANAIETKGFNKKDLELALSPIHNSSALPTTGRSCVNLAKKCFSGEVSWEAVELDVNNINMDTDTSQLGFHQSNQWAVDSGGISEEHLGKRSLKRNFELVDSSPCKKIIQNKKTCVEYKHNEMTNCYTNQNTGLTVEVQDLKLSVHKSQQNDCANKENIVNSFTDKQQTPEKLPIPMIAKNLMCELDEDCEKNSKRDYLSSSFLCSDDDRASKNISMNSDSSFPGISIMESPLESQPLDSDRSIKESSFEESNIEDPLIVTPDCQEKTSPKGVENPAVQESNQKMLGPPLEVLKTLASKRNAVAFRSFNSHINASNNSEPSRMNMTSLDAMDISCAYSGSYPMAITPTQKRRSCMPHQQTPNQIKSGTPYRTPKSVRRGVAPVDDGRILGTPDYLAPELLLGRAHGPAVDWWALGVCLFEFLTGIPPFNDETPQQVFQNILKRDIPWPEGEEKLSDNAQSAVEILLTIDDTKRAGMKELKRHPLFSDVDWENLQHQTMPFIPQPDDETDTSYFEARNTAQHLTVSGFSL

Assay [3] has as its target T3, 340 wild-type kinases (Homo sapiens, UniProt Q9UBE8).
T3 construct: purchased Reaction Biology Europe
T3 sequence (Q9UBE8 1-527): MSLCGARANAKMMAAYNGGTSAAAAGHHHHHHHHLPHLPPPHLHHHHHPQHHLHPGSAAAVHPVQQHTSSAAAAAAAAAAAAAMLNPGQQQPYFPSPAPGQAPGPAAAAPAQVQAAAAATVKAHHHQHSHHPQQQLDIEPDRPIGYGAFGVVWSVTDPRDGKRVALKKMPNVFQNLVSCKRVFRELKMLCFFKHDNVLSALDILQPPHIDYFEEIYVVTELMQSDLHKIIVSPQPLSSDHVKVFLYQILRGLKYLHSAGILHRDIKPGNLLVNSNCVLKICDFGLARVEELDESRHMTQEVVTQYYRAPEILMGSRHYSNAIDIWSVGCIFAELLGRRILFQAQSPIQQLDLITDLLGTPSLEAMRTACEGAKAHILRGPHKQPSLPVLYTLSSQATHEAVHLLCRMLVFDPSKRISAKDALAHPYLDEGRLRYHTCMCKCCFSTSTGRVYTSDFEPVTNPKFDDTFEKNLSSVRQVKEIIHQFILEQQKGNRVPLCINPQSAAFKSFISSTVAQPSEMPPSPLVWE

Where two headings read alike, the source gives them in different places.

Regarding `CNC(=O)c1ccc2c(c1)C(=O)c1ccc(Nc3ccc(F)c(NC(=O)C4CC4)c3)cc1CC2` [Compound 2015], the remaining activity at 0.2 µM at 340 wild-type kinases [1] (0.2 µM 2015, read-out: DYRK3 residual activity) is 104%; at 340 wild-type kinases [1] (DYRK3, 0.2 µM, read-out: residual activity), 104%; on 340 wild-type kinases [2] (0.2 µM 2015, read-out: MASTL residual activity), 101%; at 340 wild-type kinases [2] (MASTL, 0.2 µM, read-out: residual activity) it was 101%; at 340 wild-type kinases [3] (0.2 µM 2015, read-out: NLK residual activity) it was 92%; at 340 wild-type kinases [3] (NLK, 0.2 µM, read-out: residual activity) it was 92%. The remaining activity at 1 µM on 340 wild-type kinases [1] (1 µM 2015, read-out: DYRK3 residual activity) was 107%; at 340 wild-type kinases [1] (DYRK3, 1 µM, read-out: residual activity), 107%; on 340 wild-type kinases [2] (1 µM 2015, read-out: MASTL residual activity), 93.3%; on 340 wild-type kinases [2] (MASTL, 1 µM, read-out: residual activity), 93.3%; on 340 wild-type kinases [3] (1 µM 2015, read-out: NLK residual activity), 85.5%; on 340 wild-type kinases [3] (NLK, 1 µM, read-out: residual activity), 85.5%.
